Experimental data: patent publication US4599414A, “Theophylline derivatives” (Eisai Co., Ltd., priority 1979, dated 1986)
Like-named read-outs stand apart in the source and are kept apart here.

Test system: contractile response to histamine, terminal ileum
Test: Antihistaminic action: inhibition of contractile response to histamine (10^-6 M) in isolated terminal ileum
Format: cell-based, guinea-pig
Conditions: for inhibition at 1 µM / inhibition at 0.1 µM / inhibition at 0.01 µM: Cavia porcellus
Method: The terminal ileum was removed from a starved guinea-pig and set up in an organ bath containing Tyrode solution maintained at 26° C. Contractile tension was recorded isometrically under a tension of 1.5 g with a strain-gauge transducer. After obtaining control response to histamine (10^-6 M), antagonists were added to the bath and allowed to remain in contact with the tissue for 3 minutes. Contractile response to histamine in the presence of the antagonists was recorded and the inhibitory rate was calculated according to the following equation: [formula] The tissue was then washed at 10 min intervals with fresh Tyrode solution. Contractile response to histamine was tested after each wash in order to study the duration of action of the antagonists.

[1] = 0.05 h, antagonist 10^-6 M, 3 min contact, before washing, read-out: Inhibitory rate before washing
[2] = 0.05 h, antagonist 10^-7 M, 3 min contact, before washing, read-out: Inhibitory rate before washing
[3] = 0.05 h, antagonist 10^-8 M, 3 min contact, before washing, read-out: Inhibitory rate before washing
[4] = antagonist 10^-6 M, after 1st washing, read-out: Inhibitory rate after 1st washing
[5] = antagonist 10^-6 M, after 2nd washing, read-out: Inhibitory rate after 2nd washing
[6] = antagonist 10^-7 M, after 1st washing, read-out: Inhibitory rate after 1st washing
[7] = antagonist 10^-7 M, after 2nd washing, read-out: Inhibitory rate after 2nd washing
[8] = antagonist 10^-8 M, after 1st washing, read-out: Inhibitory rate after 1st washing
[9] = antagonist 10^-6 M, after 3rd washing, read-out: Inhibitory rate after 3rd washing
[10] = antagonist 10^-7 M, after 3rd washing, read-out: Inhibitory rate after 3rd washing
[11] = antagonist 10^-8 M, after 2nd washing, read-out: Inhibitory rate after 2nd washing
[12] = antagonist 10^-8 M, after 3rd washing, read-out: Inhibitory rate after 3rd washing
[13] = 0.05 h, read-out: Inhibitory rate before washing
[14] = read-out: Inhibitory rate after 1st washing
[15] = read-out: Inhibitory rate after 2nd washing

Row | Structure (SMILES) | inhibition at 1 µM [1] | inhibition at 0.1 µM [2] | inhibition at 0.01 µM [3] | inhibition at 1 µM [4] | inhibition at 1 µM [5] | inhibition at 0.1 µM [6] | inhibition at 0.1 µM [7] | inhibition at 0.01 µM [8] | inhibition at 1 µM [9] | inhibition at 0.1 µM [10] | inhibition at 0.01 µM [11] | inhibition at 0.01 µM [12] | Inhibitory rate after 4th washing (antagonist 10^-7 M) | Inhibitory rate after 5th washing (antagonist 10^-7 M) | further results
1 | Cn1c(=O)c2c(ncn2CCCN2CCCN(c3ccccc3)CC2)n(C)c1=O [(4)] | 100% | 64% | 12% | 10% | 0% | 4% | 0% | 0% | – | – | – | – | – | – | –
2 | Cn1c(=O)c2c(ncn2CCCN2CCCN(Cc3ccc(Cl)cc3Cl)CC2)n(C)c1=O [(7)] | 96% | 78% | 6% | 100% | 100% | 59% | 52% | 42% | 100% | 30% | 46% | 46% | – | – | Inhibitory rate after 4th washing (antagonist 10^-6 M): 83%; Inhibitory rate after 5th washing (antagonist 10^-6 M): 87%; Inhibitory rate after 6th washing (antagonist 10^-6 M): 85%; Inhibitory rate after 5th washing (antagonist 10^-8 M): 32%; Inhibitory rate after 6th washing (antagonist 10^-8 M): 18%; Inhibitory rate after 7th washing (antagonist 10^-8 M): 14%
3 | Cn1c(=O)c2c(ncn2CCCN2CCCN(Cc3ccc(F)cc3)CC2)n(C)c1=O [(9)] | 100% | 77% | 10% | 27% | 5% | 20% | 13% | 7% | 0% | 5% | 7% | 1% | – | – | –
4 | Cn1c(=O)c2c(ncn2CCCN2CCCN(Cc3ccccc3)CC2)n(C)c1=O [(11)] | – | 78% | 0% | – | – | 10% | 4% | 0% | – | 0% | – | – | – | – | –
5 | CN1CCCN(C(c2ccccc2)c2ccc(Cl)cc2)CC1 (stereo not drawn) [(3), Homochlorcyclizine, reference compound] | – | – | – | – | – | – | – | – | – | – | – | – | 39% | 25% | inhibition at 0.01 µM [13]: 13%; inhibition at 0.1 µM [13]: 88%; inhibition at 0.01 µM [14]: 46%; inhibition at 0.1 µM [14]: 84%; inhibition at 0.01 µM [15]: 42%; inhibition at 0.1 µM [15]: 63%; inhibition at 0.1 µM (read-out: Inhibitory rate after 3rd washing): 55%; Inhibitory rate after 6th washing (antagonist 10^-7 M): 33%
6 | Cn1c(=O)c2c(ncn2CCCN2CCCN(Cc3ccc(Cl)cc3)CC2)n(C)c1=O [(5)] | 100% | 100% | 2% | 84% | 65% | 64% | 31% | 7% | 58% | 20% | 4% | – | – | 0% | –
7 | CC(CN1c2ccccc2Sc2ccccc21)N(C)C (stereo not drawn) [(1), Promethazine, reference compound] | – | 87% | 37% | – | – | 77% | 56% | 44% | – | 37% | – | – | – | – | –
8 | Cn1c(=O)c2c(ncn2CCCN2CCCN(Cc3ccc(Cl)c(Cl)c3)CC2)n(C)c1=O [(8)] | – | 65% | 11% | – | – | 55% | 28% | 29% | – | 28% | 19% | – | 20% | – | –
9 | Cn1c(=O)c2c(ncn2CCCN2CCCN(Cc3ccc([N+](=O)[O-])cc3)CC2)n(C)c1=O [(10)] | 100% | 65% | 21% | 46% | 19% | 16% | – | 12% | – | – | 0% | – | – | – | –
10 | Cn1c(=O)c2c(ncn2CCCN2CCCN(Cc3ccccc3Cl)CC2)n(C)c1=O [(6)] | 100% | 80% | 14% | 100% | – | 73% | 58% | 14% | – | 47% | 14% | 6% | 38% | 29% | Inhibitory rate after 6th washing (antagonist 10^-7 M): 29%; Inhibitory rate after 7th washing (antagonist 10^-7 M): 20%
